Article PMC6751662, “Pharmacological and functional similarities of the human neuropeptide Y system in C. elegans challenges phylogenetic views on the FLP/NPR system” (Cell Communication and Signaling : CCS, 2019)

Tests used:
Assay type in all cases: cell-based, C. elegans
NPR-11 = target: T1, NPR-11 (Caenorhabditis elegans, UniProt Q18179); assay: cAMP reporter gene assay, Gi/o (inhibition of forskolin-induced cAMP), NPR-11; details: for cAMP, x-fold of forskolin (mean), NPR-11: 1 µM forskolin set to 1.00, mean of at least three independent experiments; for cAMP assay Gi, NPR-11: 4 h, lower = higher Gi/o activity, transfected HEK293, CRE-luciferase, mean of >=3 independent experiments
T1 construct: expressed in transfected cells; host or cells: HEK293, transient
T1 sequence (Q18179 1-402): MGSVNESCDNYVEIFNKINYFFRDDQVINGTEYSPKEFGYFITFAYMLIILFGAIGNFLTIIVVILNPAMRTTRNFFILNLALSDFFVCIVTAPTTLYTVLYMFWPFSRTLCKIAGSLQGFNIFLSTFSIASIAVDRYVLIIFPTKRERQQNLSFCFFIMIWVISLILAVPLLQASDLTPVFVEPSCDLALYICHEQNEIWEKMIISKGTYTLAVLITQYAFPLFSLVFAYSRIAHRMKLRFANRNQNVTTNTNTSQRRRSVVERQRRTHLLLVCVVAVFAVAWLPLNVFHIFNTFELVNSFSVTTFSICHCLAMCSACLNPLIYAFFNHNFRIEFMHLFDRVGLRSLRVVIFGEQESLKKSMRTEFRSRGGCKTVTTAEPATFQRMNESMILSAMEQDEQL
Description: (§1) Activation of Gs and Gi/o was assessed with a cAMP reporter gene assay. HEK293 cells grown to 70–80% confluency in 6-well plates were transiently co-transfected with vectors encoding the receptor and the cAMP reporter gene plasmid pGL4.29 [luc2P/CRE/Hygro] (Promega; 4 μg total, 1:1 ratio) using Metafectene Pro (3 μl/μg DNA; Biontex) following the manufacturer’s instructions. 16 h post transfection, the cells were seeded into white 384-well plates at a density of 20,000 cells/well. On the next day, the medium was removed and the cells were stimulated with 20 μl of peptide solution (or forskolin as positive control) in serum-free DMEM for 4 h. For measuring Gi/o activity, the peptide solutions additionally contained 1 μM forskolin to elevate cellular cAMP levels. After incubation, the luciferase substrate OneGlo in lysis buffer (Promega) was added and the luminescence was measured in a microplate reader Tecan Spark (Tecan). Data were analyzed with GraphPad Prism 5.03 and are shown as fold of basal or fold of forskolin in case of Gαi/o activity.
(§2) For in vitro activation, data is presented as mean ± SEM of at least three independent experiments conducted in technical triplicate. […] For the C. elegans NPRs, we considered the strongest response elicited by any of the peptides downstream of a particular receptor as the receptor’s maximal signal. This may or may not be the biological maximum that can be reached by the ‘true’ endogenous agonist. For the human receptors, the response to the established endogenous agonist reflected the maximal signal.

NPR-5b = target: T2, NPR-5b (Caenorhabditis elegans, UniProt Q6F3C9); assay: cAMP reporter gene assay, Gi/o (with forskolin), NPR-5b; details: for cAMP, x-fold of forskolin (mean), NPR-5b: 1 µM forskolin set to 1.00, values > 1 = cAMP stimulation, transiently transfected HEK293 cells, mean of at least three independent experiments; for cAMP assay Gi, NPR-5b: 4 h, transfected HEK293, CRE-luciferase, increase consistent with Gs coupling, mean of >=3 independent experiments
T2 sequence (Q6F3C9 1-433): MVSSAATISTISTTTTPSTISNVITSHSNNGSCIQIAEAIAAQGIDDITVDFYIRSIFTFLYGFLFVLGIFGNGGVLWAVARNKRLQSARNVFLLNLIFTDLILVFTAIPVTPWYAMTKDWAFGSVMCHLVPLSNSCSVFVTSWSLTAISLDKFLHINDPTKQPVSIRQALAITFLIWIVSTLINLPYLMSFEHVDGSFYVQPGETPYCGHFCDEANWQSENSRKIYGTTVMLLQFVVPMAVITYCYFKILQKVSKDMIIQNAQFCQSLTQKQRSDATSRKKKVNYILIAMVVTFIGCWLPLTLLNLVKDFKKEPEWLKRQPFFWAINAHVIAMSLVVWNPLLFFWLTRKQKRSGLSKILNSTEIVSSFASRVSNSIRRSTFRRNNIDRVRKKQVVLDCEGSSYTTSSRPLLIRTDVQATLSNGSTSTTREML
Description: as §1, with “(Tecan).” for “(Tecan). Data were analyzed with GraphPad Prism 5.03 and are shown as fold of basal or fold of forskolin in case of Gαi/o activity.”
as §2

NPR-1 = target: T3, NPR-1 (Caenorhabditis elegans, UniProt Q18534); assay: cAMP reporter gene assay, Gi/o (inhibition of forskolin-induced cAMP), NPR-1; design: host or cells: HEK293; details: lower = higher Gi/o activity; for cAMP, x-fold of forskolin (mean), NPR-1: inhibition of cAMP production induced by 1 µM forskolin (set to 1.00), transiently transfected HEK293 cells, mean of at least three independent experiments; for cAMP assay Gi, NPR-1: 4 h, transfected HEK293, CRE-luciferase, mean of >=3 independent experiments
T3 sequence (Q18534 1-457): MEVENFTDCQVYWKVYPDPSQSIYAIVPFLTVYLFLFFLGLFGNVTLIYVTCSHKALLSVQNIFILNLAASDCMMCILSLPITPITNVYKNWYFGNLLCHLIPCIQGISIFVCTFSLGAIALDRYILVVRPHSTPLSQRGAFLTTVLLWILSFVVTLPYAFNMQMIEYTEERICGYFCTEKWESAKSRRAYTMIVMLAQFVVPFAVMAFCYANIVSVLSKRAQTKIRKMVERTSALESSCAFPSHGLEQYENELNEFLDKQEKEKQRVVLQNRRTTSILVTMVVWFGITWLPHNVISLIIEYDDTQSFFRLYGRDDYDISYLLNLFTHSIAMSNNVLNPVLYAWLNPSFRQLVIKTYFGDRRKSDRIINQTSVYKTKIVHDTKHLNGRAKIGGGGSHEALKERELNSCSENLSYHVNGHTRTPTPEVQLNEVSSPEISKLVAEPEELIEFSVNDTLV
Description: as §1, §2

[1] = 0.1 µM peptide, transiently transfected HEK293 cells
[2] = 10 µM peptide, transiently transfected HEK293 cells
[3] = 0.1 µM peptide + 1 µM forskolin (set to 1.00)
[4] = 10 µM peptide + 1 µM forskolin (set to 1.00)

Substance | cAMP, x-fold of forskolin (mean), NPR-11 (NPR-11; [1]) | cAMP, x-fold of forskolin (mean), NPR-11 (NPR-11; [2]) | cAMP, x-fold of forskolin (mean), NPR-5b (NPR-5b; 0.1 µM peptide) | cAMP, x-fold of forskolin (mean), NPR-5b (NPR-5b; 10 µM peptide) | cAMP, x-fold of forskolin (mean), NPR-1 (NPR-1; 0.1 µM peptide) | cAMP, x-fold of forskolin (mean), NPR-1 (NPR-1; 10 µM peptide) | cAMP assay Gi, NPR-11 (NPR-11; [3]) | cAMP assay Gi, NPR-11 (NPR-11; [4]) | cAMP assay Gi, NPR-5b (NPR-5b; [3]) | cAMP assay Gi, NPR-5b (NPR-5b; [4]) | cAMP assay Gi, NPR-1 (NPR-1; [3]) | cAMP assay Gi, NPR-1 (NPR-1; [4]) | Emax ± SEM [%] (NPR-11; NPR-11, forskolin (1 µM) set to 1.00, lower values correspond to high Gi/o activity, transiently transfected HEK293 cells, mean ± SEM of at least three independent experiments, SEM)
TPDINPAWYASRGIRPVGRF-NH2 [PrRP20, human prolactin-releasing peptide, 20 residues, reference compound] | 0.90 x-fold of forskolin | 0.65 x-fold of forskolin | 0.90 x-fold of forskolin | 1.05 x-fold of forskolin | 1.14 x-fold of forskolin | 1.45 x-fold of forskolin |  |  |  |  |  |  | 
APKPKFIRF-NH2 [FLP-5-1, C. elegans FMRFamide-like peptide, C-terminally amidated, synthesized by SPPS] | 0.94 x-fold of forskolin | 0.48 x-fold of forskolin | 0.91 x-fold of forskolin | 1.96 x-fold of forskolin | 0.54 x-fold of forskolin | 0.50 x-fold of forskolin | 0.94 x-fold of forskolin | 0.51 x-fold of forskolin | 0.92 x-fold of forskolin | 1.90 x-fold of forskolin | 0.58 x-fold of forskolin | 0.53 x-fold of forskolin | 
APLEGFEDMSGFLRTIDGIQKPRF-NH2 [FLP-33, NPY-like C. elegans FLP with C-terminal RxRF/Ya signature] | 0.77 x-fold of forskolin | 0.21 x-fold of forskolin | 0.79 x-fold of forskolin | 0.85 x-fold of forskolin | 0.72 x-fold of forskolin | 0.82 x-fold of forskolin |  |  |  |  |  |  | -0.57 ± 0.06%
